Patent US5138101A, “Recovery of high-boiling aldehydes from rhodium-catalyzed hydroformylation processes” (Eastman Kodak Company, priority 1991, dated 1992)
Values belong to the molecule of their own block, whether it stands above or below them.

Key:
[1] = Partitioning (partition coefficient, Kp) of hydroformylation products and hydroformylation solvent between hydroformylation solvent phase and alkanol/water extraction solution phase; assay type: physicochemical
From the text: The extraction process described herein is the equilibration of a particular compound dissolving into two separate liquid phases. The effectiveness of the present extraction process may be measured in terms of the partition coefficient (Kp) for a compound "X" which is defined as: [formula] […] High Kp values give high extraction efficiencies requiring lower amounts of extraction solution. Similarly, it is desirable that the Kp of the hydroformylation solvent be a low value. This simplifies purification of the aldehyde products down-stream. In the hydroformylation of diolefins to dialdehydes, it also is desirable to have Kp values for the dialdehyde products larger than the Kp values of the intermediate mono-aldehyde mono-olefin (formyl-olefin) intermediate formed in the hydroformylation reaction. This permits recycling of the formyl-olefin to the hydroformylation reactor in the hydroformylation solvent for further reaction to the desired dialdehyde product, while selectively extracting the desired di-aldehyde product. Likewise, for the same reason, it is desirable to have low Kp values for the olefin or polyolefin feedstocks used in the process.
The extraction examples were carried out in a 300 mL, 3-neck, glass flask equipped with a Teflon magnetic stir bar, a thermometer to measure the temperature of the liquid, a septum for the use of a syringe, a heating mantle and a nitrogen bubbler blanket for the system. […] […] The mixture was stirred at 25° C. for 30 minutes to reach equilibrium, stirring was stopped, and the mixture was allowed to separate into 2 layers (phases) over a 30 minute period of time. […] Samples of each phase were taken with a syringe and chromatographed on a Hewlett Packard Model 5730 capillary FID gas chromatograph. The instrument used a 30 meter DB-1 column (Supelco.) with a programming rate of a 4 minute hold at 70° C. with a programming rate of 8° C./minute to 250° C. The calculations for the weights of hydroformylation products in each phase were carried out using standard procedures using the dodecane as an internal standard for the catalyst layer and methanol as the internal standard for the aqueous layer. The initial volumes of the two phases were used for estimation of the volumes of the two phases at equilibrium to obtain the concentrations of the products in each phase.
The partition coefficients (Kp) were calculated for the C9-enal and C10-dial products for equilibrium between the dodecane hydroformylation solvent and the extraction solution phases at 25° C.
The two phases in the flask were heated to and maintained at 53° C. with stirring for 30 minutes to reach equilibrium. The mixture was allowed to separate into 2 layers at 53° C. and each layer was sampled and analyzed as described above. […] The partitioning procedure was repeated at 70° C.

[2] = Extraction and back-extraction with p-diisopropylbenzene or 1,7-octadiene: rhodium concentration in both phases, composition of extraction solution; assay type: physicochemical
Experimental: Examples […] illustrate yet another embodiment of the process of the present invention wherein extraction solution containing dissolved rhodium is back-extracted with either hydroformylation solvent or olefinic feedstock to reduce the concentration of rhodium in the extraction solution.
The general procedure described in Examples 31-48 was used to extract 60.5 mL of hydroformylation product solution obtained by the hydroformylation of 1,7 octadiene in the presence of a catalyst system comprising rhodium and BISBI phosphine (Reference Example 9). […] The extraction flask was charged with the hydroformylation product solution, 37 mL methanol, 12 mL water and […] [Na] provided as sodium oleate.
For Example 88, the extraction mixture was stirred at room temperature for 30 minutes and then drained into a calibrated, addition funnel and allowed to stand for about five minutes to permit phase separation. The volume of the hydroformylation product solution (organic) phase was 45 mL and the volume of the extraction solution phase was 65 ml. Samples of each phase were taken for rhodium and product composition analyses.
For Example 89, the extraction solution phase separated in Example 88 was added to a clean 250 mL flask along with 30 mL of p-diisopropylbenzene and the mixture was stirred at 50° C. for 30 minutes, was allowed to stand at 50° C. for about 5 minutes to permit phase separation and then each phase was separated and analyzed for composition and rhodium concentration.
For Example 90, the extraction solution separated in Example 89 was added to a clean 250 mL flask along with another 30 mL of p-diisopropylbenzene hydroformylation solvent. The mixture was agitated at 50° C. for thirty minutes, allowed to stand at 50° C. for 5 minutes to permit phase separation and each phase was analyzed for composition and rhodium concentration.
This scheme would be useful in a counter-current extraction method for recycling recovered hydroformylation product solution as well as in using the olefinic feed to the reactor as a back extraction solvent for recovering soluble rhodium from the methanol/water extract.
Example 91 was carried out using the procedure described in Examples 88. The flask was charged with 62 mL of a hydroformylation product solution (Reference Example 10) having a rhodium concentration 166 mg/L and containing 3.01 g of C9-enal, 12.69 g of C10-dial and 37.84 grams of p-diisopropylbenzene. Methanol (37 ml), water (16 ml) and 78 mg Na (as sodium 2-ethylhexanoate) were added to the flask. This mixture was stirred at 50° C. for 30 minutes and then allowed to stand for 5 minutes at 50° C. to permit phase separation. The hydroformylation product solution (organic) phase and the extraction solution phase were both sampled and analyzed for rhodium concentration. The 2 phases were drained into a clean, graduated addition funnel and the volumes of the two phases were measured. The volume of the organic layer was 43 mL and the extraction solution layer was 62 mL.
For Example 92, the extraction solution phase produced in Example 91 was added to a clean, 250 mL flask along with 30 mL of p-diisopropylbenzene and the mixture was stirred at 50° C. for 30 minutes and then allowed to separate into two phases. The two phases were analyzed for rhodium concentration and composition. The mixture was drained into a clean addition funnel to separate the two phases. For Example 93, the extraction solution phase of Example 92 and 30 mL of 1,7-octadiene were added to a clean, 250 mL flask. This mixture was stirred at 50° C. for 30 minutes and then allowed to separate into two phases which were analyzed for rhodium concentration.
The amounts (g) of C9-enal, C10-dial in the sample of hydroformylation product solution initially extracted and in the methanol/water extraction solutions resulting from Examples 91, 92 and 93 are given in Table XIII. The ratio given in Table XIII is the weight ratio of C10-dial:C9-enal. […]

[3] = Example 92, after p-diisopropylbenzene back-extraction
[4] = Example 93, after 1,7-octadiene back-extraction

Molecule: c1ccc2c(c1)CCCC2 [tetrahydronaphthalene]
- Partition Coefficient ([1]; Example 15, Ref. Ex. 22, MeOH:water 1.5:1, 52° C.): 0.079
- Partition Coefficient ([1]; Example C-6, Ref. Ex. 18, DEG:water 3:1, 25° C.): 0.092

Molecule: C1CCC2CCCCC2C1 (stereo not drawn) [decahydronaphthalene]
- Partition Coefficient ([1]; Example C-4, Ref. Ex. 17, DEG:water 1:1, 25° C.): 0.0050
- Partition Coefficient ([1]; Example C-5, Ref. Ex. 17, DEG:water 1:1, 70° C.): 0.034

- Composition of Extraction Solution (amount) ([2]; Example 91): 1.39 g
- Composition of Extraction Solution (amount) [2, 3]: 0.51 g
- Composition of Extraction Solution (amount) [2, 4]: 0.18 g
Molecule: isomeric noneneal [C9-enal]

Molecule: CCCCC(CC)COC(=O)c1ccccc1C(=O)OCC(CC)CCCC (stereo not drawn) [di-(2-ethylhexyl) phthalate]
- Partition Coefficient ([1]; Example 16, Ref. Ex. 23, MeOH:water 3:1, 50° C.): 0.0448
- Partition Coefficient ([1]; Example 17, Ref. Ex. 23, MeOH:water 1:1, 50° C.): 0.0037

- Composition of Extraction Solution (amount) ([2]; Example 91): 11.67 g
- Weight ratio of C10-dial:C9-enal in extraction solution ([2]; Example 91): 8.40
- Weight ratio of C10-dial:C9-enal in extraction solution ([2]; Example 92): 18.06
- Composition of Extraction Solution (amount) [2, 3]: 9.21 g
- Weight ratio of C10-dial:C9-enal in extraction solution ([2]; Example 93): 33.94
- Composition of Extraction Solution (amount) [2, 4]: 6.11 g
Molecule: isomeric decanedialdehyde [C10-dial]
